The structures appear in SMILES notation.

T1 sequence (Q15858 whole entry): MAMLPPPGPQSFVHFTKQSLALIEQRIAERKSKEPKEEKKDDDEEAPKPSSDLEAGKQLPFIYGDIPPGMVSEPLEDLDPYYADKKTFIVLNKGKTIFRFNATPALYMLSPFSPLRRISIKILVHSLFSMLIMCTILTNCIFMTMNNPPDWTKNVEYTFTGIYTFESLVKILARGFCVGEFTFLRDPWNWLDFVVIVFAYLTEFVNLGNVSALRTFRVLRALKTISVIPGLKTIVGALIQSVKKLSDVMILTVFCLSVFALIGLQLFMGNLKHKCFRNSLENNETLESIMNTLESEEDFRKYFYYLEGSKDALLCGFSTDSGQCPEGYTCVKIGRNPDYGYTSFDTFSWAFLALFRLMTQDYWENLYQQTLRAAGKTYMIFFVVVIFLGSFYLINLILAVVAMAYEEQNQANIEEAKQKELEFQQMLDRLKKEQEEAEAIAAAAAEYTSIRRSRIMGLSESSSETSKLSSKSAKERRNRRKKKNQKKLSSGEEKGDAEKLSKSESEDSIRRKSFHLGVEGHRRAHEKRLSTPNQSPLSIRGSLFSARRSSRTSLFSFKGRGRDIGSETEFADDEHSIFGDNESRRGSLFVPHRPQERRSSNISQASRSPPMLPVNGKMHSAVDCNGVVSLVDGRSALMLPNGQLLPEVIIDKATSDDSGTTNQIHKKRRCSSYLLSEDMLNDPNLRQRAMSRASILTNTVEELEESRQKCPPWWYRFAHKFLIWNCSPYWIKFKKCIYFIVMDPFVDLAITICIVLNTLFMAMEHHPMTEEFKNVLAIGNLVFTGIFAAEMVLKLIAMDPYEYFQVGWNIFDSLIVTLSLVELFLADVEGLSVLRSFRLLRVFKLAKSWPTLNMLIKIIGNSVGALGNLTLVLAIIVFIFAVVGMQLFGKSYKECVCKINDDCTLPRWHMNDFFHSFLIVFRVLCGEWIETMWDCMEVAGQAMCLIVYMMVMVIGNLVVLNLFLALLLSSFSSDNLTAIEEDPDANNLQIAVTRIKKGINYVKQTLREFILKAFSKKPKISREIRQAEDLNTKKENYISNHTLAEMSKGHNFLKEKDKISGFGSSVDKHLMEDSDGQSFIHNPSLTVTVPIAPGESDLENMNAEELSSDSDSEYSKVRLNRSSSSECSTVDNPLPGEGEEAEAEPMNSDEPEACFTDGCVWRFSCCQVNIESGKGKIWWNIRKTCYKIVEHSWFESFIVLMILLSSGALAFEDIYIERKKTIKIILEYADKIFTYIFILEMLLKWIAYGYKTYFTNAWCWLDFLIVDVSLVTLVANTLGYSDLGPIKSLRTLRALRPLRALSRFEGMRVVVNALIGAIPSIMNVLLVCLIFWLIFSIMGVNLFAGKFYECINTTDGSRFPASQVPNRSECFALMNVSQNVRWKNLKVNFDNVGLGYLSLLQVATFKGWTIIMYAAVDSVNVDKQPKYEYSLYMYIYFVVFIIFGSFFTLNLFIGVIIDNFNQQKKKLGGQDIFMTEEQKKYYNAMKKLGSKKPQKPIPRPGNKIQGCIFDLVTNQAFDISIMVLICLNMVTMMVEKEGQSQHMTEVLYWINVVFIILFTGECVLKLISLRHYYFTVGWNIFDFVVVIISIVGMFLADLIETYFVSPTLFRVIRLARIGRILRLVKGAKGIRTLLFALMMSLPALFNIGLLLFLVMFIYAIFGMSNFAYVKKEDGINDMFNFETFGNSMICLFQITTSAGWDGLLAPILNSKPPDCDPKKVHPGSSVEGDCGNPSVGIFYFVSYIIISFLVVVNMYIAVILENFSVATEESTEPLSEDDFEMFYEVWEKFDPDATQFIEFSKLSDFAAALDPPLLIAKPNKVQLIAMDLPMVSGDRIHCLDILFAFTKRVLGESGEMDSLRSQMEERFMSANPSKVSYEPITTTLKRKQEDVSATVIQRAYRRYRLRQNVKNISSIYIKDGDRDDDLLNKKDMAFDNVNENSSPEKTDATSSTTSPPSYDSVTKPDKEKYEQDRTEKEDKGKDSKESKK

One assay concerns the target T1, Nav1.7 (or SCN9A) channel; HEK cells stably transfected with hSCN9A (Homo sapiens, UniProt Q15858).
T1 construct: expressed in transfected cells
Kind of assay: Nav1.7 block, PatchXpress 7000 automated whole-cell voltage clamp, estimated IC50 (EIC50). It is filed as cell-based. The conditions noted are these: PatchXpress platform; hSCN9A HEK cells held at V1/2 of inactivation; estimated IC50.
Take `O=S(=O)(Nc1nccs1)c1ccc(Oc2ccc(Cl)cc2-c2ccnn2Cc2ccccc2)c(F)c1` [Example 220, 4-(2-(1-benzyl-1H-pyrazol-5-yl)-4-chlorophenoxy)-3-fluoro-N-(thiazol-2-yl)benzenesulfonamide]: the 50% inhibitory concentration (IC50) (usually the concentration needed to halve the response being measured) was 150 nM.

Regarding `O=S(=O)(Nc1nccs1)c1ccc(Oc2ccc(F)cc2-c2ccnn2CCO)c(F)c1` [Example 237, 3-fluoro-4-{4-fluoro-2-[1-(2-hydroxyethyl)-1H-pyrazol-5-yl]phenoxy}-N-1,3-thiazol-2-ylbenzenesulfonamide], the IC50 is 210 nM.

`N#Cc1cc(S(=O)(=O)Nc2ncns2)ccc1Oc1ccccc1Oc1ccccc1` [Example 68, 3-cyano-4-(2-phenoxyphenoxy)-N-1,2,4-thiadiazol-5-ylbenzenesulfonamide]: the IC50 was 770 nM.

On to `Cc1ccc(-c2ncccc2Oc2ccc(S(=O)(=O)Nc3ncns3)cc2C#N)cc1` [Example 17, 3-cyano-4-{[2-(4-methylphenyl)pyridin-3-yl]oxy}-N-1,2,4-thiadiazol-5-ylbenzenesulfonamide], for which the IC50 is 25500 nM.

With `N#Cc1cc(S(=O)(=O)Nc2ncns2)ccc1Oc1ccc(CC2CC2)cc1` [Example 60, 3-cyano-4-[4-(cyclopropylmethyl)phenoxy]-N-1,2,4-thiadiazol-5-ylbenzenesulfonamide], the IC50 was 2790 nM.

For the compound `CC(C)(C)n1ccc(-c2cc(F)ccc2Oc2ccc(S(=O)(=O)Nc3nccs3)c(F)c2)n1` [Example 212, 4-(2-(1-tert-butyl-1H-pyrazol-3-yl)-4-fluorophenoxy)-2-fluoro-N-(thiazol-2-yl)benzenesulfonamide], the IC50 was 15400 nM.

Take `N#Cc1cc(S(=O)(=O)Nc2nccs2)ccc1Oc1cc(C(F)(F)F)nn1-c1ccccc1` [Example 168, 3-cyano-4-(1-phenyl-3-(trifluoromethyl)-1H-pyrazol-5-yloxy)-N-(thiazol-2-yl)benzenesulfonamide]: the IC50 is 70 nM.

Turning to `CCn1nc(C(F)(F)F)cc1-c1ccc(Oc2ccc(S(=O)(=O)Nc3nccs3)cc2C#N)cc1` [Example 280, 3-cyano-4-[4-(2-ethyl-5-trifluoromethyl-2H-pyrazol-3-yl)-phenoxy]-N-thiazol-2-yl-benzenesulfonamide], the IC50 is 90 nM.

For `Cc1cccc(-c2cc(F)cc(F)c2)c1Oc1ccc(S(=O)(=O)Nc2ncns2)cc1C#N` [Example 45, 3-cyano-4-[(3′,5′-difluoro-3-methylbiphenyl-2-yl)oxy]-N-1,2,4-thiadiazol-5-ylbenzenesulfonamide], the concentration for half-maximal inhibition (IC50) is 30440 nM.

The assay is the same for the next values; noted with them: estimated IC50; hSCN9A HEK cells, PatchXpress platform; Examples 283-814.
Turning to `Cn1nc(C(F)(F)F)cc1-c1cc(Cl)ccc1Oc1ccc(S(=O)(=O)Nc2cscn2)cc1C#N` [Example 395, 4-{4-chloro-2-[1-methyl-3-(trifluoromethyl)-1H-pyrazol-5-yl]phenoxy}-3-cyano-N-1,3-thiazol-4-ylbenzenesulfonamide], the IC50 is 1800 nM.

`Cc1cc(-c2cccc(Oc3ccc(S(=O)(=O)Nc4nccs4)cc3C#N)c2)n(CCN(C)C)n1` [Example 481, 3-cyano-4-(3-{1-[2-(dimethylamino)ethyl]-3-methyl-1H-pyrazol-5-yl}phenoxy)-N-1,3-thiazol-2-ylbenzenesulfonamide]: the IC50 was 1700 nM.

Consider `O=S(=O)(Nc1ncns1)c1cc(F)c(Oc2cc(Cl)c(F)cc2-c2cn[nH]c2)cc1F` [Example 752, 4-[5-chloro-4-fluoro-2-(1H-pyrazol-4-yl)phenoxy]-2,5-difluoro-N-1,2,4-thiadiazol-5-ylbenzenesulfonamide], for which the IC50 was 2.1 nM.

Regarding `Cn1cc(-c2cc(Cl)ccc2Oc2ccc(S(=O)(=O)Nc3nccs3)cc2C#N)cn1` [Example 693, 4-[4-chloro-2-(1-methyl-1H-pyrazol-4-yl)phenoxy]-3-cyano-N-1,3-thiazol-2-ylbenzenesulfonamide], the IC50 is 81 nM.

Take `N#Cc1cc(S(=O)(=O)Nc2nccs2)ccc1Oc1ccc(Cl)cc1-n1cnnn1` [Example 416, 4-(4-chloro-2-(1H-tetrazol-1-yl)phenoxy)-3-cyano-N-(thiazol-2-yl)benzenesulfonamide]: the IC50 was 1600 nM.

Consider `N#Cc1cc(S(=O)(=O)Nc2nccs2)ccc1Oc1ccc(Cl)cc1-c1[nH]ncc1F` [Example 710, 4-[4-chloro-2-(4-fluoro-1H-pyrazol-5-yl)phenoxy]-3-cyano-N-1,3-thiazol-2-ylbenzenesulfonamide], for which the IC50 was 88 nM.

Consider `N#Cc1cc(S(=O)(=O)Nc2nccs2)ccc1Oc1ccc(Cl)cc1-c1cnccn1` [Example 652, 4-(4-chloro-2-pyrazin-2-ylphenoxy)-3-cyano-N-1,3-thiazol-2-ylbenzenesulfonamide], for which the half-maximal inhibitory concentration (IC50) is 900 nM.

For the compound `O=S(=O)(Nc1ncns1)c1cc(F)c(Oc2cc(F)c(Cl)cc2-c2cn[nH]c2)cc1F` [Example 757, 4-[4-chloro-5-fluoro-2-(1H-pyrazol-4-yl)phenoxy]-2,5-difluoro-N-1,2,4-thiadiazol-5-ylbenzenesulfonamide], the IC50 was 0.9 nM.

`CCn1nc(C(F)(F)F)cc1-c1ccc(Oc2ccc(S(=O)(=O)Nc3cscn3)cc2C#N)cc1` [Example 401, 3-cyano-4-{4-[1-ethyl-3-(trifluoromethyl)-1H-pyrazol-5-yl]phenoxy}-N-1,3-thiazol-4-ylbenzenesulfonamide]: the half-maximal inhibitory concentration (IC50) is 2700 nM.

Consider `Cn1nccc1-c1cc(OC(F)(F)F)ccc1Oc1ccc(S(=O)(=O)Nc2nccs2)cc1C#N` [Example 783, 3-cyano-4-[2-(1-methyl-1H-pyrazol-5-yl)-4-(trifluoromethoxy)phenoxy]-N-1,3-thiazol-2-ylbenzenesulfonamide], for which the IC50 was 7.8 nM.

In the case of `N#Cc1cc(S(=O)(=O)Nc2ncns2)ccc1Oc1ccc(C(F)(F)F)cc1-c1ccn[nH]1` [Example 741, 3-cyano-4-[2-(1H-pyrazol-5-yl)-4-(trifluoromethyl)phenoxy]-N-1,2,4-thiadiazol-5-ylbenzenesulfonamide], the IC50 was 7.8 nM.

The assay is the same for the next values; noted with them: estimated IC50; hSCN9A HEK cells, PatchXpress platform; Examples 815-1040.
On to `Cc1cnccc1-c1cc(Cl)ccc1Oc1ccc(S(=O)(=O)Nc2ncns2)cc1C#N` [Example 1011, 4-[4-chloro-2-(3-methylpyridin-4-yl)phenoxy]-3-cyano-N-1,2,4-thiadiazol-5-ylbenzenesulfonamide], for which the IC50 is 28 nM.

For `N#Cc1cc(S(=O)(=O)Nc2nccs2)ccc1Oc1ccccc1-c1cncnc1` [Example 985, 3-cyano-4-(2-pyrimidin-5-ylphenoxy)-N-1,3-thiazol-2-ylbenzenesulfonamide], the IC50 was 2300 nM.

Take `N#Cc1cc(S(=O)(=O)Nc2ncns2)ccc1Oc1ccc(Cl)cc1-c1cccc(CN2CC(F)(F)C2)n1` [Example 874, 4-(4-chloro-2-{6-[(3,3-difluoroazetidin-1-yl)methyl]pyridin-2-yl}phenoxy)-3-cyano-N-1,2,4-thiadiazol-5-ylbenzenesulfonamide]: the IC50 is 350 nM.

For the compound `O=S(=O)(Nc1nncs1)c1ccc(Oc2ccc(OC(F)(F)F)cc2-c2ccnnc2)c(Cl)c1` [Example 942, 3-chloro-4-[2-pyridazin-4-yl-4-(trifluoromethoxy)phenoxy]-N-1,3,4-thiadiazol-2-ylbenzenesulfonamide], the IC50 is 35 nM.

With `O=S(=O)(Nc1nncs1)c1cc(Cl)c(Oc2ccc(Cl)cc2-c2ccnnc2)cc1F` [Example 843, 5-chloro-4-(4-chloro-2-pyridazin-4-ylphenoxy)-2-fluoro-N-1,3,4-thiadiazol-2-ylbenzenesulfonamide], the IC50 is 34 nM.

These data come from US8541588B2, “Sulfonamide derivatives” (Pfizer Limited, priority 2009, dated 2013).
